According to ChEMBL document CHEMBL1201862, “PubChem BioAssay data set” (2004):
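In this assay, cells in 96-well plates receive the compound at five concentrations for 48 hours. Endpoints are linearly interpolated between the surrounding concentrations. GI50 is the concentration that inhibits growth by half.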 Calls of active or inactive are those of the source. Rule as the data show it: active = GI50 up to about 1.1 µM and inactive = higher.

How the values were obtained:
Assay in all cases: NCI anticancer screen, dose series, 48 h
A549 = tested on: A549
DU-145 = tested on: DU-145
HCC 2998 = tested on: HCC 2998
HOP-62 = tested on: HOP-62
K562 = tested on: K562
LOX IMVI = tested on: LOX IMVI
MDA-N = tested on: MDA-N
MOLT-4 = tested on: MOLT-4
OVCAR-3 = tested on: OVCAR-3
OVCAR-4 = tested on: OVCAR-4
OVCAR-5 = tested on: OVCAR-5
RXF 393 = tested on: RXF 393
SF-268 = tested on: SF-268
SF-539 = tested on: SF-539
SK-MEL-28 = tested on: SK-MEL-28
SNB-19 = tested on: SNB-19
SR = tested on: SR
T47D = tested on: T47D
TK-10 = tested on: TK-10
UACC-257 = tested on: UACC-257

Structure (SMILES) | GI50 (A549) | GI50 (DU-145) | GI50 (HCC 2998) | GI50 (HOP-62) | GI50 (K562) | GI50 (LOX IMVI) | GI50 (MDA-N) | GI50 (MOLT-4) | GI50 (OVCAR-3) | GI50 (OVCAR-4) | GI50 (OVCAR-5) | GI50 (RXF 393) | GI50 (SF-268) | GI50 (SF-539) | GI50 (SK-MEL-28) | GI50 (SNB-19) | GI50 (SR) | GI50 (T47D) | GI50 (TK-10) | GI50 (UACC-257)
COc1ccc(C2C(=O)c3c(OC)cc(OC)cc3OC2c2cccnc2)cc1 (stereo not given) | > 100 µM (inactive) | > 100 µM (inactive) | > 100 µM (inactive) | > 100 µM (inactive) | 59.6 µM (inactive) | 61.2 µM (inactive) | 46.7 µM (inactive) | 46 µM (inactive) | > 100 µM (inactive) | 44.2 µM (inactive) | > 100 µM (inactive) | > 100 µM (inactive) | > 100 µM (inactive) | > 100 µM (inactive) | > 100 µM (inactive) | > 100 µM (inactive) | 37.6 µM (inactive) | > 100 µM (inactive) | > 100 µM (inactive) | > 100 µM (inactive)
COc1cc(C(CN)N(C)C)cc(OC)c1OC (stereo not given) | > 100 µM (inactive) | > 100 µM (inactive) | > 100 µM (inactive) | > 100 µM (inactive) | > 100 µM (inactive) | > 100 µM (inactive) | > 100 µM (inactive) | > 100 µM (inactive) | > 100 µM (inactive) | > 100 µM (inactive) | > 100 µM (inactive) | > 100 µM (inactive) | > 100 µM (inactive) | > 100 µM (inactive) | > 100 µM (inactive) | > 100 µM (inactive) | 8.49 µM (inactive) | > 100 µM (inactive) | > 100 µM (inactive) | > 100 µM (inactive)
O=C1/C(=C\c2ccc(Cl)cc2Cl)Sc2scc(-c3cccc([N+](=O)[O-])c3)[n+]21 | 18.1 µM (inactive) | 14 µM (inactive) | 7.64 µM (inactive) | 16.5 µM (inactive) | 3.1 µM (inactive) | 1.55 µM (inactive) | 4.28 µM (inactive) | 1.45 µM (inactive) | 8.13 µM (inactive) | 12 µM (inactive) | 15.5 µM (inactive) | 6.25 µM (inactive) | 9.1 µM (inactive) | 1.81 µM (inactive) | 14.6 µM (inactive) | 12.8 µM (inactive) | 2.58 µM (inactive) | 12.2 µM (inactive) | 4.07 µM (inactive) | 5.79 µM (inactive)
O=C(O)c1ccccc1C(=O)c1ccc2c(c1)Cc1ccccc1-2 | 33.3 µM (inactive) | > 100 µM (inactive) | 28.1 µM (inactive) | > 100 µM (inactive) | 57.9 µM (inactive) | 85.7 µM (inactive) | 48.8 µM (inactive) | > 100 µM (inactive) | > 100 µM (inactive) | > 100 µM (inactive) | > 100 µM (inactive) | > 100 µM (inactive) | > 100 µM (inactive) | > 100 µM (inactive) | 53.7 µM (inactive) | > 100 µM (inactive) | 91.6 µM (inactive) | 80.4 µM (inactive) | 52.1 µM (inactive) | > 100 µM (inactive)
CC(=O)Oc1ccc(OC(Oc2ccccc2)c2ccccc2)cc1 (stereo not given) | 37.5 µM (inactive) | 36.9 µM (inactive) | 14.7 µM (inactive) | 36.2 µM (inactive) | 51.4 µM (inactive) | 21.6 µM (inactive) | 21.3 µM (inactive) | 34 µM (inactive) | 21.2 µM (inactive) | 33.7 µM (inactive) | 27.7 µM (inactive) | 26.1 µM (inactive) | 33 µM (inactive) | 23.1 µM (inactive) | 26.2 µM (inactive) | 27.3 µM (inactive) | 14.9 µM (inactive) | 39.9 µM (inactive) | 67.3 µM (inactive) | 32.2 µM (inactive)
CC(=O)O[C@H]1C(=O)[C@@]2(C)[C@H]([C@H](OC(=O)c3ccccc3)[C@]3(O)C[C@H](OC(=O)[C@H](O)[C@@H](NC(=O)c4ccccc4)c4ccccc4C)C(C)=C1C3(C)C)[C@]1(OC(C)=O)CO[C@@H]1C[C@@H]2O | 1.7 µM (inactive) | 1.85 µM (inactive) | 0.782 µM (active) | 0.326 µM (active) | 0.211 µM (active) | 0.631 µM (active) | 0.0632 µM (active) | 0.411 µM (active) | 0.324 µM (active) | 3.78 µM (inactive) | 0.843 µM (active) | 0.525 µM (active) | 1.2 µM (inactive) | 0.433 µM (active) | 1.55 µM (inactive) | 1.27 µM (inactive) | 0.136 µM (active) | > 25 µM (inactive) | 2.71 µM (inactive) | 0.718 µM (active)
